Test results: publication PMC8018184, “Evaluation of the Pharmacophoric Role of the O–O Bond in Synthetic Antileishmanial Compounds: Comparison between 1,2-Dioxanes and Tetrahydropyrans” (Journal of Medicinal Chemistry, 2020)
Like-named read-outs stand apart in the source and are kept apart here.

What was measured:
[1] = tested on: L. donovani promastigotes (MHOM/NP/02/BPK282/0cl4); assay: Promastigote growth inhibition assay (alamarBlue); type: cell-based, Leishmania donovani; details: for IC50: Leishmania donovani; for Selectivity index (SI) = CC50/IC50: Vero CC50 / IC50 on promastigotes; for Activity against promastigotes under the bioassay conditions: 40 μM compound
Procedure: The bioactivity of the new tetrahydropyrans 3 was initially evaluated against the extracellular promastigote forms of L. donovani (MHOM/NP/02/BPK282/0cl4) as the reference strain, indicative of the leishmaniasis in the Old World. The results were expressed as IC50, i.e., the concentration of the product required to inhibit the parasite growth by 50%. When a compound could inhibit the promastigote growth, its cytotoxicity was also evaluated on Vero cells (Table 1) and on THP-1 cells (see the Supporting Information, Table S3) and the corresponding selectivity indexes (SIs) were calculated. The performance of each tetrahydropyran 3 was compared with that of the corresponding endoperoxide 2 (Table 1).
Promastigotes of a L. donovani reference strain (MHOM/NP/02/BPK282/0cl4) were maintained at 26 °C in a liquid custom-made medium, HOMEM Cat. no: 1140-082 (Gibco Thermo Fisher Scientific Inc., Waltham, USA), complete composition: S-MEM (Eagle) 1 × 1 liter pack, glucose (1–2 g), sodium bicarbonate (0.3 g), sodium pyruvate (0.11 g), p-aminobenzoic acid (1 mg), biotin (0.1 mg), HEPES (4.77–5.96 g), MEM amino acids (10 mL), MEM nonessential amino acids (10 mL), pH 7.5–7.6, supplemented with 20% fetal bovine serum (FBS, EuroClone SpA, Milan, Italy)[123] and 1% penicillin–streptomycin (EuroClone SpA).
To evaluate the efficacy of the compounds on the extracellular forms of L. donovani, promastigotes in their late log/stationary phase were seeded with the complete HOMEM medium at 10^6 cells mL^–1 in 96-well plates and incubated with tested compounds at a range concentration of 600–1.6 μM in a 26 °C incubator for 72 h. The antileishmanial drug amphotericin B was used as the positive control, and untreated promastigotes were the negative control. Each experiment was performed in duplicate. Stock solution of the compounds was 8 mM in DMSO. […] The alamarBlue assay includes a colorimetric growth indicator based on detection of metabolic activity. Specifically, the system incorporates an oxidation–reduction (REDOX) indicator that changes color in response to chemical reduction of the growth medium resulting from cell growth. The method monitors the reducing environment of proliferating cells; the cell-permeable resazurin is added (nonfluorescent form, blue color) and, upon entering cells, is reduced to resorufin (fluorescent form, red color) as a result of cellular metabolic activity. Evaluation was performed by adding 20 μL of alamarBlue and incubating at 26 °C for 24 h. The reducing environment was evaluated after 24 h by absorbance measurement at the Multiskan ascent plate reader (Thermo Fisher Scientific Inc.) at 550 and 630 nm.

[2] = Cytotoxicity test on Vero cells (alamarBlue); type: cell-based, African green monkey
Procedure: (§1) Vero cells (kidney of African green monkey epithelial cell line) were cultured at 37 °C in the MEM liquid medium supplemented with 10% FBS (EuroClone SpA), 1% levoglutamine (EuroClone SpA), and 1% penicillin–streptomycin (EuroClone SpA). THP-1 cells (human leukemia monocytic cell line) were cultured at 37 °C in the RPMI 1640 (EuroClone SpA) liquid medium supplemented with 10% FBS (EuroClone SpA), 1% levoglutamine (EuroClone SpA), 1% penicillin–streptomycin, and mercaptoethanol (Gibco) 50 μM.
(§2) The cytotoxicity of the compounds was determined using mammalian kidney epithelial cells (Vero cell line) and human acute monocytic leukemia cell line (THP-1). Cells were seeded (10^5 cells mL^–1) on 96-well plates with the complete MEM medium and incubated with test compounds at 37 °C in a 5% CO2 incubator. After 72 h of incubation, 20 μL of the alamarBlue reagent was added to each well and incubated at 37 °C for 24 h. Reduction of resazurin to resorufin was evaluated after 24 h by absorbance measurement at the Multiskan ascent plate reader (Thermo Fisher Scientific Inc.,) at 550 and 630 nm. […] Each experiment was performed in duplicate.

[3] = tested on: intramacrophage amastigotes of L. donovani; assay: Amastigote growth inhibition assay in infected THP-1 cells (Giemsa, infectivity index); type: cell-based, Leishmania donovani; details: for IC50: Leishmania donovani, intracellular amastigotes in THP-1, 72 h, read-out: IC50 against amastigotes of L. donovani
Procedure: To evaluate the efficacy of the compounds on the intracellular form of L. donovani, human acute monocytic leukemia cell line (THP-1) was infected with L. donovani promastigotes. Cells were harvested and seeded in a 96-well plate (10^5 cells mL^–1) in the complete RPMI 1640 medium, and PMA (0.1 μM, Cayman Chemical Company, Ann Arbor, Michigan, USA) was added for obtaining maturation and cell adherence. Cells were incubated at 37 °C in a 5% CO2 incubator. After 48 h, the medium was replaced with the fresh medium containing stationary-phase promastigotes that were then phagocyted by monocytic cells and transformed into intracellular amastigotes. After 24 h of incubation, newly synthesized compounds were added and the plates were incubated at 37 °C in a 5% CO2 incubator for 72 h. After incubation, wells were washed, fixed, and stained with Giemsa. Staining was detected using a Nikon Eclipse E200 light microscope (Nikon, Tokyo, Japan). The infectivity index (% of infected macrophages × average number of amastigotes per macrophage) was determined by counting at least 100 cells in duplicate cultures.

[4] = Cytotoxicity test on THP-1 cells (alamarBlue); type: cell-based; details: human, THP-1 cells (acute monocytic leukemia cell line); CSV supplement; read-out: CC50 against human acute monocytic leukemia cell line (THP-1)
Procedure: as §1, §2
Cytotoxicity in THP-1 cell line
We performed additional cytotoxicity tests employing THP-1 cell line. We also calculated the
corresponding selectivity indexes, as the ratio between CC50 of THP-1 cell line and IC50 on amastigotes
THP-1 cells than on VERO cells; thus showing a not significant variance of selectivity index.
Table S3. Inhibitory activity of tetrahydropyrans 3 and endoperoxides 2 against amastigotes of L.
donovani, cytotoxicity in human acute monocytic leukemia cell line (THP-1) and selectivity index (SI).
Tetrahydropyran IC50 CC50 Endoperoxide IC50 CC50
a (µM)b (µM)c a (µM)b (µM)c
a Compounds tested as racemates. b IC50 represents the concentration of a compound that causes 50% growth inhibition.
Results represent the mean (± standard deviation, SD) of three independent experiments performed in duplicate. c CC50
represents 50% cytotoxic concentration on THP-1 cells. d Selectivity index (SI) = CC50/IC50. […]

[5] = tested on: L. donovani promastigotes; assay: Promastigote growth inhibition in the presence of an iron chelator (DFO or DFP), isobologram; type: cell-based, Leishmania donovani; details: for Interaction with the iron chelator DFO (isobologram, ΣFIC): synergism <0.5, antagonism >4.0, else additivity
Procedure: At first, we determined IC50 and CC50 values of the iron chelator DFO (187 and >400 μM, respectively). Then, the effect of the iron chelator presence on the bioactivity of the two compounds was studied by coincubating 2a and 3a with DFO at different concentrations. The variation of IC50 of the compounds in relation to the different doses of DFO was determined by the alamarBlue assay (Table 3), and the isobole technique was employed to depict the interactions of 2a and 3a with DFO (Figure 6).
The isobole technique was used for depicting synergistic or antagonistic interaction between the iron chelator and the two compounds on the parasite growth (Figure 6). Combinations are expressed as the sum of the fractional inhibitory concentrations (ΣFIC), and FIC values are defined as synergism (<0.5), antagonism (>4.0), and additivity (no interaction). The strength of synergism (or antagonism) is indicated by the degree of deviation from the line of additivity.
[…]. Each compound was added using a concentration range including the IC50 of each compound. Each experiment was performed in duplicate. The viability of the parasites was determined by the alamarBlue assay. The fractional inhibitory concentration (FIC; FIC = IC50 of the drug in the combination/IC50 of the drug when tested alone) of each compound was calculated and plotted as an isobologram.

[6] = tested on: L. donovani promastigotes (MHOM/NP/02/BPK282/0cl4); assay: Promastigote growth inhibition assay (alamarBlue); type: cell-based; details: Leishmania donovani, HOMEM with 10% FBS
[7] = 72 h, alamarBlue, HOMEM 20% FBS, compounds as racemates, read-out: IC50 (concentration causing 50% growth inhibition) against promastigotes of L. donovani
[8] = chlorocebus sabaeus, Vero cells (kidney epithelial cell line), 72 h, alamarBlue, read-out: CC50 (50% cytotoxic concentration) on Vero cells
[9] = THP-1 CC50 / IC50 on amastigotes
[10] = Vero CC50 / IC50 on amastigotes

IC50 [3] [µM]	Structure (SMILES)	IC50 [1, 7] [µM]	Selectivity index (SI) = CC50/IC50 [1]	CC50 at 72 h [2, 8] [µM]	Selectivity index (SI) = CC50/IC50 [3, 9]	Selectivity index (SI) = CC50/IC50 [3, 10]	CC50 at 72 h [4] [µM]	further results
2.8 ± 0.7	CO[C@]1(C)OCC(c2ccccc2)(c2ccccc2)C[C@@H]1COCc1cn(CCC[P+](c2ccccc2)(c2ccccc2)c2ccccc2)nn1.[Br-] (racemic) [3d, (3-(4-(((2-Methoxy-2-methyl-5,5-diphenyltetrahydro-2H-pyran-3-yl)methoxy)methyl)-1H-1,2,3-triazol-1-yl)propyl)triphenylphosphonium bromide]	18 ± 3	5.1	92 ± 8.7	22.9	32.8	64.1	
	CCCCC1(CCCC)C[C@H](CNCCCCNc2ccc([N+](=O)[O-])c3nonc23)[C@](C)(OC)OO1 [2f, N^1-((6,6-Dibutyl-3-methoxy-3-methyl-1,2-dioxan-4-yl)methyl)-N^4-(7-nitrobenzo[c][1,2,5]oxadiazol-4-yl)butane-1,4-diamine]	11.4	1.1	12.1				
	CC(=O)N(O)CCCCCNC(=O)CCC(=O)N(O)CCCCCNC(=O)CCC(=O)N(O)CCCCCN [DFO, desferrioxamine, reference compound]							IC50 ([1]; 72 h, read-out: IC50 (concentration causing 50% growth inhibition) against promastigotes of L. donovani): 187 µM; CC50 at 72 h ([2]; cell line not given, read-out: CC50 of the iron chelator): > 400 µM
	CCCCC1(CCCC)C[C@H](CNCCCCNc2c3ccc(Cl)cc3nc3ccc(OC)cc23)[C@](C)(OC)OO1 [2e, N^1-(6-Chloro-2-methoxyacridin-9-yl)-N^4-((6,6-dibutyl-3-methoxy-3-methyl-1,2-dioxan-4-yl)methyl)butane-1,4-diamine]	0.5	2.6	1.3				
3.2 ± 0.9	CO[C@]1(C)OCC(c2ccccc2)(c2ccccc2)C[C@@H]1CNCCCn1ccnc1 (racemic) [3b, 3-(1H-Imidazol-1-yl)-N-((2-methoxy-2-methyl-5,5-diphenyltetrahydro-2H-pyran-3-yl)methyl)propan-1-amine]	5.8 ± 0.9	7.3	42.3 ± 3.2	15.6	13.2	50	Interaction with the iron chelator DFO (isobologram, ΣFIC) [5]: additive effects; IC50 [6]: 3.2 µM
	Cc1c(O)c(=O)ccn1C [DFP, deferiprone, reference compound]							IC50 ([1]; read-out: IC50 of the iron chelator DFP): 219 µM; CC50 at 72 h ([2]; cell line not given, read-out: CC50 of the iron chelator DFP): 143 µM
	CO[C@]1(C)OOC(C)(C)C[C@@H]1CNCCCn1ccnc1 [2c]	> 40						Activity against promastigotes under the bioassay conditions [1]: inactive
	CCCCC1(CCCC)CO[C@@](C)(OC)[C@@H](CNCCCCNc2c3ccc(Cl)cc3nc3ccc(OC)cc23)C1 (racemic) [3e, N^1-(6-Chloro-2-methoxyacridin-9-yl)-N^4-((5,5-dibutyl-2-methoxy-2-methyltetrahydro-2H-pyran-3-yl)methyl)butane-1,4-diamine]	0.9	1.3	1.2				
> 40	C[C@H]1[C@H](OC(=O)CCC(=O)O)O[C@@H]2O[C@@]3(C)CC[C@H]4[C@H](C)CC[C@@H]1[C@@]24OO3 [Artesunate, reference compound]	> 40						
	CO[C@]1(C)OCC(C)(C)C[C@@H]1CNCCCn1ccnc1 (racemic) [3c, 3-(1H-Imidazol-1-yl)-N-((2-methoxy-2,5,5-trimethyltetrahydro-2H-pyran-3-yl)methyl)propan-1-amine]	> 40						Activity against promastigotes under the bioassay conditions [1]: inactive

Structure (SMILES)	IC50 [3] [µM]	IC50 [1, 7] [µM]	Selectivity index (SI) = CC50/IC50 [1]	CC50 at 72 h [2, 8] [µM]	Selectivity index (SI) = CC50/IC50 [3, 9]	Selectivity index (SI) = CC50/IC50 [3, 10]	CC50 at 72 h [4] [µM]	further results
Br.CO[C@]1(C)OOC(c2ccccc2)(c2ccccc2)C[C@@H]1COCc1cn(CCC[P+](c2ccccc2)(c2ccccc2)c2ccccc2)nn1 [2d]	16.5 ± 1.5	13.8 ± 2.2	17.3	238 ± 36.8	8.6	14.4	142	
CO[C@]1(C)OOC(c2ccccc2)(c2ccccc2)C[C@@H]1CNCCCn1ccnc1 [2b]	5 ± 1	6.3 ± 1.1	7.7	49 ± 2.7	10.5	9.8	52.5	IC50 ([5]; Leishmania donovani, no DFO, read-out: IC50 against promastigotes, absence of DFO (Table S4)): 7.5 µM; Interaction with the iron chelator DFO (isobologram, ΣFIC) [5]: additive effects; IC50 [6]: 1.2 µM
